Reference: patent US4628090A, “Fluorine-containing antifolates incapable of polyglutanayte formation related compounds” (Rensselaer Polytechnic Institute, priority 1985, dated 1986)
Entries after “also recorded” stand apart in the source; their conditions may differ. Like-named read-outs stand apart in the source and are kept apart here.

Legend:
[1] = system: FPGS (folylpolyglutamate synthetase); assay: FPGS inhibition / chain termination by 4-fluoroglutamic acid; format: biochemical
Source text: The present invention for the first time presents a fluorinated compound, e.g. D,L-threo-4-fluoroglutamic acid which inhibits FPGS. It is proposed that by replacing the glutamate moiety of MTX with 4-fluoroglutamate, as in the present invention, the new MTX analog becomes capable of inhibiting DHFR and incapable of acting as a substrate for FPGS.

[2] = system: FPGS (folylpolyglutamate synthetase); details: alternate substrate; McGuire and Coward, J. Biol. Chem. 260, 6747 (1985); cited from earlier work
[3] = system: FPGS (folylpolyglutamate synthetase); details: Rosowsky et al; cited from earlier work
[4] = system: DHFR; details: Rosowsky et al; cited from earlier work
[5] = system: leukemia; details: Farber et al, 1948; cited from earlier work
[6] = system: hepatic cells; format: cell-based
[7] = system: folylpolyglutamate synthetase; assay: Polyglutamylation by FPGS: incubation with FPGS, ATP and glutamic acid (Tables 2 and 3); format: biochemical; details: Table 2 footnotes, ATP, glutamic acid
[8] = system: dihydrofolate reductase (DHFR); assay: DHFR inhibition; format: biochemical; details: in vitro, relative to MTX
Source text: Hopefully, the potential for this new compound as a treatment for leukemia will be exploited further.

[9] = system: cultured hepatic cells; assay: Toxicity in long term pulse administration experiments, cultured hepatic cells; format: cell-based
Source text: The major difference is that the cells given MTX contain large amounts (60%-90%) of MTX polyglutamate derivatives which efflux only very slowly, and thus are trapped in the cell. In contrast, cells given MFTX contain less than 5% of the analgous FMTX polyglutamates.

[10] = system: rat liver FPGS; assay: FPGS substrate activity, in vitro, rat liver FPGS; format: biochemical
[11] = system: biosynthesis of thymidyate; assay: Thymidylate biosynthesis (DNA synthesis) in pulse administration experiments; format: cell-based

## NC(CC(F)C(=O)O)C(=O)O [D,L-threo-4-fluoroglutamic acid]
[1]
  inhibition of FPGS: inhibits FPGS
[2]
  chain termination of the FPGS reaction: chain termination of the FPGS reaction

## CN(Cc1cnc2nc(N)nc(N)c2n1)c1ccc(C(=O)NC(CCS(=O)(=O)O)C(=O)O)cc1 (racemic)
[3]
  inhibition of FPGS: appears to weakly inhibit FPGS
[4]
  affinity for DHFR: tightly bind DHFR

## CN(Cc1cnc2nc(N)nc(N)c2n1)c1ccc(C(=O)N[C@@H](CCC(=O)O)C(=O)O)cc1 [Methotrexate]
[5]
  remission in leukemia: temporary remission in leukemia
[6]
  polyglutamate derivatives contained in cells: 60-90%
[7]
  polyglutamylation: undergoes

## CN(Cc1cnc2nc(N)nc(N)c2n1)c1ccc(C(=O)NC(CC(F)C(=O)O)C(=O)O)cc1 (stereo not drawn) [FMTX, 4-amino-10-methyl-pteroyl-4-fluoroglutamic acid]
[8]
  inhibitory activity against DHFR: retain the potent inhibitory activity of MTX against DHFR; also recorded: comparable to MTX
[6]
  efflux (transport out) from hepatic cells, rate: essentially identical to unmetabolized MTX
  polyglutamate derivatives contained in cells: less than 5%
  uptake by hepatic cells (rate and extent): nearly identical in terms of rate and extent as unmetabolized MTX
[9]; long term pulse administration, cultured hepatic cells, relative to MTX
  toxicity levels: several thousand times lower than MTX
[9]; preliminary biochemistry, relative to MTX
  toxicity to cells: without being nearly as toxic to cells
[9]; pulse conditions
  cytotoxicity: marked decrease in cytotoxicity
[10]
  substrate for FPGS: not a substrate
[7]
  polyglutamylation: resists
[11]
  biosynthesis of thymidyate, and therefore DNA synthesis: only very weakly affected

## Nc1nc2ncc(CNc3ccc(C(=O)N[C@@H](CCC(=O)O)C(=O)O)cc3)nc2c(=O)[nH]1 [Folic Acid]
[7]
  polyglutamylation: undergoes polyglutamylation
